Assay results: article PMC6099553, “Novel Structural Insight into Inhibitors of Heme Oxygenase-1 (HO-1) by New Imidazole-Based Compounds: Biochemical and In Vitro Anticancer Activity Evaluation” (Molecules : A Journal of Synthetic Chemistry and Natural …, 2018)

Columns and labels:
HO-2 [1] = tested on: HO-2; design: method as in PMID 23097500; details: Figure 1; cited from earlier work
HO-1 [2] = tested on: HO-1; design: method as in PMID 23097500; details: Figure 1; cited from earlier work
HEK cells = assay: In vitro cytotoxicity, sulforhodamine B assay, HEK (healthy cells); type: cell-based, human
Method: (§1) MDA-MB-231 cells (hormone resistant), MCF-7 (hormone sensitive), PC3 cells (hormone resistant), DU145 cells (hormone resistant), LnCap cells (hormone sensitive), B16, and HEK cells were maintained in complete growth media (DMEM/Ham’s F12 supplemented with 10% fetal bovine serum, […], 100 units/mL penicillin, 100 units/mL of streptomycin, and 2.2 g/L of NaHCO3) at 37 °C in a humidified atmosphere of 5% CO2. For all procedures, cells were harvested using TrypLE Express (Life Technologies, Auckland, New Zealand).
(§2) To test the cytotoxic effect of HO inhibitors, cells (8 × 10^3 cells/well) were seeded into 96-well plates and incubated for 24 h. This was followed by treatment with HO inhibitors at the concentrations 1.1–200 μM (1.1–1000 μM for HEK cells) of compound 1. In addition, the cytotoxicity of doxorubicin (5 μM, 10 μM, and 30 μM) and a combination of doxorubicin 5 μM and 37 μM 1 was assessed using B16 cells. In all experiments, the cells were incubated for 72 h. Following the incubation, cells were fixed using 10% trichloroacetic acid (TCA). Cytotoxicity was determined using the sulforhodamine B assay as previously described. […] Treatments were performed in triplicate and data represents mean of three independent experiments.

LnCap cells = assay: In vitro cytotoxicity, sulforhodamine B assay, LnCap; type: cell-based; details: Homo sapiens, hormone-sensitive prostate cancer cells, 72 h, SRB
Method: as §1, §2

B16 cells = assay: In vitro cytotoxicity, sulforhodamine B assay, B16 (alone and with doxorubicin); type: cell-based, murine; details: for IC50: murine melanoma cells, 72 h, SRB
Method: as §1
as §2, with “In addition, the cytotoxicity of doxorubicin (5 μM, 10 μM, and 30 μM) and a combination of doxorubicin 5 μM and 37 μM 1 was assessed using B16 cells.” left out
Figure 3 Cytotoxicity of compound 1 against MCF-7 and B16 cells. (A) MCF-7 (hormone-sensitive breast cancer cells) and (B) B16 (melanoma) cells were treated with 1.1–200 μM of compound 1 for 72 h. Control wells were treated with vehicle only (0.2% DMSO). At the end of treatment, cell number was determined using the sulforhodamine B assay. Data are expressed as mean ± SEM (n = 3). Non-linear regression and IC50 values determination were performed using GraphPad Prism 6.
Figure 4 Cytotoxicity of compound 1 in combination with different concentration of doxorubicin (doxo) against B16 cells. Data are expressed as mean ± SEM (n = 3). *** Significant vs. untreated control cells: p < 0.001.

PC3 cells = assay: In vitro cytotoxicity, sulforhodamine B assay, PC3; type: cell-based; details: Homo sapiens, PC-3; hormone-resistant prostate cancer cells, 72 h, SRB
Method: as §1, §2

MDA-MB-231 cells = assay: In vitro cytotoxicity, sulforhodamine B assay, MDA-MB-231; type: cell-based; details: Homo sapiens, hormone-resistant breast cancer cells, 72 h, SRB
Method: as §1, §2

MCF-7 cells = assay: In vitro cytotoxicity, sulforhodamine B assay, MCF-7; type: cell-based; details: Homo sapiens, MCF7; hormone-sensitive breast cancer cells, 72 h, SRB
Method: as §1
To test the cytotoxic effect of HO inhibitors, cells (8 × 10^3 cells/well) were seeded into 96-well plates and incubated for 24 h. This was followed by treatment with HO inhibitors at the concentrations 1.1–200 μM (1.1–1000 μM for HEK cells) of compound 1. In addition, the cytotoxicity of doxorubicin (5 μM, 10 μM, and 30 μM) and a combination of doxorubicin 5 μM and 37 μM 1 was assessed using B16 cells. In all experiments, the cells were incubated for 72 h. Following the incubation, cells were fixed using 10% trichloroacetic acid (TCA). Cytotoxicity was determined using the sulforhodamine B assay as previously described. […]
Figure 3 Cytotoxicity of compound 1 against MCF-7 and B16 cells. […] At the end of treatment, cell number was determined using the sulforhodamine B assay. Data are expressed as mean ± SEM (n = 3). […]

DU145 cells = assay: In vitro cytotoxicity, sulforhodamine B assay, DU145; type: cell-based; details: Homo sapiens, DU-145; hormone-resistant prostate cancer cells, 72 h, SRB
Method: as §1, §2

HO-1 [3] = target: T1, HO-1 (Rattus norvegicus, UniProt P06762); assay: HO-1 inhibition, rat spleen microsomal fraction, bilirubin formation; type: biochemical; details: for IC50: rat spleen microsomes, mean ± SD, triplicate
T1 construct: selected in order to use the most native (i.e., closest to in vivo) forms of HO-1 and HO-2; from tissue; host or cells: spleen microsomal fraction of male Sprague-Dawley rats
T1 sequence (P06762 1-289): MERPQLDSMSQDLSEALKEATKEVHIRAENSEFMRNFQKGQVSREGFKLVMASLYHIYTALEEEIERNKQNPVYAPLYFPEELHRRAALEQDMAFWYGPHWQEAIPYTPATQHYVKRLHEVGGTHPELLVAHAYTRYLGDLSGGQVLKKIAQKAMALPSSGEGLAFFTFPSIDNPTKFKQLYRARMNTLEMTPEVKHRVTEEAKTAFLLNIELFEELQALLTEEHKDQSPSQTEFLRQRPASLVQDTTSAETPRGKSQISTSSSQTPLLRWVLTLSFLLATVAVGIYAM
Method: Inhibition activity assay for HO-1 was performed by extracting the enzyme from the rat spleen microsomal fraction. HO-1 activity was determined by measuring the formation of BR using the difference in absorbance at 464–530 nm, as described in the experimental section. Inhibition activity data are expressed as IC50 (μM) and obtained results are outlined in Table 2, utilizing Azalanstat as a reference compound.
HO-1 and HO-2 were obtained from rat spleen and brain, respectively, as the microsomal fraction prepared by differential centrifugation; the dominance of HO-1 protein in the rat spleen and of HO-2 in the rat brain has been well documented. These particular microsomal preparations were selected in order to use the most native (i.e., closest to in vivo) forms of HO-1 and HO-2. Spleen and brain (Sprague–Dawley rats) microsomal fractions were prepared according to the procedure outlined by Ryter et al.. The experiments reported in the present paper complied with current Italian law and met the guidelines of the Institutional Animal Care and Use Committee of University of Catania (Italy). The experiments were performed in male Sprague–Dawley albino rats (150 g body weight and age 45 d). They had free access to water and were kept at room temperature with a natural photo-period (12 h light-12 h dark cycle). For measuring HO-1 and HO-2 activities, each rat was sacrificed and their spleen and brain were excised and weighed. A homogenate (15%, w/v) of spleens and brains pooled from four rats was prepared in ice-cold HO-homogenizing buffer (50 mM Tris buffer, pH 7.4, containing 0.25 M sucrose) using a Potter–Elvehjem homogenizing system with a Teflon pestle. The microsomal fraction of rat spleen and brain homogenate was obtained by centrifugation at 10,000 rpm for 20 min at 4 °C, followed by centrifugation of the supernatant at 100,000 rpm for 60 min at 4 °C. The 100,000 rpm pellet (microsomes) was resuspended in 100 mM potassium phosphate buffer, pH 7.8, containing 2 mM MgCl2 with a Potter–Elvehjem homogenizing system. The rat spleen and brain microsomal fractions were divided into equal aliquots, placed into microcentrifuge tubes, and stored at −80 °C for up to 2 months. Protein concentration of the microsomal fraction was determined by Lowry method.
(§3) Liver cytosol has been used as a source of biliverdin reductase (BVR). […] The 100,000 rpm supernatant was saved and then stored in small amounts at −80 °C after its protein concentration was measured.
(§4) The HO-1 and HO-2 activities were determined by measuring the BR formation using the difference in absorbance at 464 to 530 nm as described by Ryter et al.. […] After recovering the chloroform phase, the amount of BR formed was measured with a double-beam spectrophotometer as OD464-530 nm (extinction coefficient, 40 mM/cm^−1 for BR). […]

HO-2 [4] = target: T2, HO-2 (Rattus norvegicus, UniProt P23711); assay: HO-2 inhibition, rat brain microsomal fraction, bilirubin formation; type: biochemical; details: rat brain microsomes; mean ± SD, triplicate
T2 construct: selected in order to use the most native (i.e., closest to in vivo) forms of HO-1 and HO-2; from tissue; host or cells: brain microsomal fraction of male Sprague-Dawley rats
T2 sequence (P23711 1-315): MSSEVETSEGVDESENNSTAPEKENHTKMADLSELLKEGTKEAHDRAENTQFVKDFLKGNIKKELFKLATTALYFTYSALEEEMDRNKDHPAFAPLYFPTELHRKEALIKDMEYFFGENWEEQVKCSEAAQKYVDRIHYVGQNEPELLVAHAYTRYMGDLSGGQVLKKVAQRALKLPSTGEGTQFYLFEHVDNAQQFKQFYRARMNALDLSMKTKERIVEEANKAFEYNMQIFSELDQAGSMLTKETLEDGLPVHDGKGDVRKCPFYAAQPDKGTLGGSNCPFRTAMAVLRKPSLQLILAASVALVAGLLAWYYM
Method: HO-1 and HO-2 were obtained from rat spleen and brain, respectively, as the microsomal fraction prepared by differential centrifugation; the dominance of HO-1 protein in the rat spleen and of HO-2 in the rat brain has been well documented. These particular microsomal preparations were selected in order to use the most native (i.e., closest to in vivo) forms of HO-1 and HO-2. Spleen and brain (Sprague–Dawley rats) microsomal fractions were prepared according to the procedure outlined by Ryter et al.. The experiments reported in the present paper complied with current Italian law and met the guidelines of the Institutional Animal Care and Use Committee of University of Catania (Italy). The experiments were performed in male Sprague–Dawley albino rats (150 g body weight and age 45 d). […] Protein concentration of the microsomal fraction was determined by Lowry method.
as §3, §4

Nc1ccc(SC[C@@H]2CO[C@](CCc3ccc(Cl)cc3)(Cn3ccnc3)O2)cc1 [Azalanstat]
IC50 (HO-2 [1]): 24.4 µM
IC50 (HO-1 [2]): 5.3 µM

OC(Cn1ccnc1)c1cccc(Br)c1 (stereo not drawn) [Compound 1]
IC50 (HEK cells; HEK293, non-cancerous human embryonic kidney cells, 72 h, SRB): 364 ± 21.3 µM
Selectivity for cancer cells with respect to healthy cells (HEK cells; cancer cell lines vs HEK): 2–10 fold
IC50 (LnCap cells): 158 ± 2.3 µM
IC50 (B16 cells; Mus musculus, B16, 72 h): 42 µM
Cytotoxic effect in combination with doxorubicin (B16 cells; compound 1 (10 μM) with doxorubicin (5 μM), B16 cells): synergistic cytotoxic effect
IC50 (B16 cells): 37 ± 7.25 µM
IC50 (PC3 cells): 165 ± 2.8 µM
IC50 (MDA-MB-231 cells): 82.6 ± 0.57 µM
IC50 (MCF-7 cells): 52.6 ± 3.76 µM
IC50 (DU145 cells): 138 ± 2.7 µM

Brc1cccc(C(Cn2ccnc2)OCc2ccccc2)c1 (stereo not drawn) [Compound 2, 1-[2-(3-Bromophenyl)-2-(phenylmethoxy)ethyl]-1H-imidazole]
IC50 (HO-1 [3]): 80 ± 3.3 µM
fold less potent towards HO-1 than parent compound 1 (HO-1 [3]; ratio of HO-1 IC50 values): around 200 fold

O=C(Cn1ccnc1)NC(c1ccccc1)c1ccccc1 [Compound 3, N-Benzhydryl-2-(1H-imidazol-1-yl)acetamide]
IC50 (HO-1 [3]): 28.8 ± 1.4 µM
melting point: 196 to 197 °C
IC50 (HO-2 [4]): 14.4 ± 0.9 µM

OC(Cn1ccnc1)C12CC3CC(CC(C3)C1)C2 (stereo not drawn) [Compound 4, 2-(1H-Imidazol-1-yl)-1-tricyclo[3.3.1.13,7]dec-1-yl-ethanol]
IC50 (HO-1 [3]): 67.6 ± 2.1 µM
melting point: 182 to 183 °C

Clc1ccc(CCC2(Cn3ccnc3)OCCO2)cc1 [QC-15]
IC50 (HO-2 [1]): > 100 µM
IC50 (HO-1 [2]): 2.8 µM

FC(F)(F)c1ccc(SC[C@@H]2CO[C@@](CCc3ccc(Cl)cc3)(Cn3ccnc3)O2)nc1 [QC-80]
IC50 (HO-2 [1]): 16 µM
IC50 (HO-1 [2]): 2.1 µM

O=C(Cn1ccnc1)C12CC3CC(CC(C3)C1)C2 [QC-82]
IC50 (HO-2 [1]): > 100 µM
IC50 (HO-1 [2]): 3 µM

O=C(CCc1ccccc1)Cn1cncn1 [QC-86]
IC50 (HO-2 [1]): 18 µM
